Assay results reported in ChEMBL document CHEMBL1201862, “PubChem BioAssay data set” (2004).
Calls of active or inactive are those of the source.

Tests used:
[1] = molecular target: T1, Zinc finger protein mex-5 (Caenorhabditis elegans, UniProt Q9XUB2); experiment: potency of MEX-5 RNA-binding blockers – biochemical, C. elegans, fluorescence polarization, dose response (AID 1960)
T1 sequence (Q9XUB2 whole entry): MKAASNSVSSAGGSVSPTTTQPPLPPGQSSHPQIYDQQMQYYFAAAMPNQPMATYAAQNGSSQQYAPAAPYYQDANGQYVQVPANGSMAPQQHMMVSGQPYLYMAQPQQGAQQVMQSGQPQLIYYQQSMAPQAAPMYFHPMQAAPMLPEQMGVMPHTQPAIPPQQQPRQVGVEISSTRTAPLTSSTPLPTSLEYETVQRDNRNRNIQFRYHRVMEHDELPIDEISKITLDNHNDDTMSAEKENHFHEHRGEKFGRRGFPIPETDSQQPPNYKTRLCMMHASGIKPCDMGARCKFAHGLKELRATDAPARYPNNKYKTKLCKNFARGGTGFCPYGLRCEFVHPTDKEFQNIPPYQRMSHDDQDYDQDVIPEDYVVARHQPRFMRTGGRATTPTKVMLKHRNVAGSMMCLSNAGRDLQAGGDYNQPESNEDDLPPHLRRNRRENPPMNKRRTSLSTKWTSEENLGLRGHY

[2] = molecular target: T2, RNA-binding protein pos-1 (Caenorhabditis elegans, UniProt G5EF15); experiment: disruptors of C. elegans POS-1 RNA interaction – biochemical, fluorescence polarization, dose response (AID 1964);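 note: purified POS-1 fused to maltose binding protein made in E. coli; potency of compounds blocking POS-1 binding to fluorescent RNA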
T2 sequence (G5EF15 whole entry): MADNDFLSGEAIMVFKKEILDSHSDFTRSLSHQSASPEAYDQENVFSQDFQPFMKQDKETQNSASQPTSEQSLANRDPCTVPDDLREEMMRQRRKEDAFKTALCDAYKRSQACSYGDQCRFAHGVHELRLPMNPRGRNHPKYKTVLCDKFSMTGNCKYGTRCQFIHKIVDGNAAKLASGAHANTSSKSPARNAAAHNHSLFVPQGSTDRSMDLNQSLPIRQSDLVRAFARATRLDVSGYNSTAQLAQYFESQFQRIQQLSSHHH

[3] = molecular target: T3, Polyadenylate-binding protein 1 (Homo sapiens, UniProt P11940); experiment: MLLE domain peptide-binding blockers, IC50 – biochemical, fluorescence polarization, FITC-PAM2 peptide, dose response (AID 602259); format: functional; conditions: read-out: IC50_Mean
T3 sequence (P11940 whole entry, the tested form may be a part): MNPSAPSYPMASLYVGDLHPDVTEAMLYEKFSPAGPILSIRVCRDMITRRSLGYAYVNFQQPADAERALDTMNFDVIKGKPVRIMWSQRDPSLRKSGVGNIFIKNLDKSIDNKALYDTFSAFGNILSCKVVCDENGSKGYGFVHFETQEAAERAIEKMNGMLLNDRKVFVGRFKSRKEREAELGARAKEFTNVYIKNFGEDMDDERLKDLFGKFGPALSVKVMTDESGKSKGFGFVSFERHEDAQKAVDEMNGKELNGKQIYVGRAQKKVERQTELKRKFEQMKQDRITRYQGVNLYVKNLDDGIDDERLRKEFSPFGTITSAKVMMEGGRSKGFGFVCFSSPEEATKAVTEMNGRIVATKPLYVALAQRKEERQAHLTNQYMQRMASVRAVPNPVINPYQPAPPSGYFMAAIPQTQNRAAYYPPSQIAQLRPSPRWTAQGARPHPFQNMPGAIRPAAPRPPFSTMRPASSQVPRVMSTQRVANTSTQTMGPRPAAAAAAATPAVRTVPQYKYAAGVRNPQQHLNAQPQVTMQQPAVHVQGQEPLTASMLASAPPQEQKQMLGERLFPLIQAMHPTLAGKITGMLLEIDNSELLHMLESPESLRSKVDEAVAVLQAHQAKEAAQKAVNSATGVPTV

[4] = molecular target: T3, Polyadenylate-binding protein 1; experiment: MLLE binding blockers, Cy5 peptide tracer – biochemical, fluorescence polarization, Cy5-PAM2 peptide, secondary, miRNA deadenylation inhibitor project, dose response (AID 602260); format: functional; conditions: read-out: IC50_Mean
[5] = microbe, parasite or virus in culture; format: functional; conditions: Mycobacterium tuberculosis
[6] = molecular target: T4, Ubiquitin-conjugating enzyme E2 N (Homo sapiens, UniProt P61088); format: functional;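 note: Dose-response confirmation in a TR-FRET assay detecting UBC13-driven polyubiquitin chain formation, inhibition measured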
T4 sequence (P61088 whole entry): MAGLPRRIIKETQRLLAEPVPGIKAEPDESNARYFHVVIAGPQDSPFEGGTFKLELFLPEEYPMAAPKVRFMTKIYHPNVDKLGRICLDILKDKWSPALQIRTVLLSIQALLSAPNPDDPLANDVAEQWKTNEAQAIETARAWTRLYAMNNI

cells [7] = format: functional, cell-based
[8] = Trypanosoma cruzi growth suppression in host cells – NIH3T3 host cells, beta-gal luminescence, confirmation (AID 2044); format: functional, cell-based;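 note: intracellular parasites grown in NIH/3T3 mouse fibroblasts as host cells; luminescent beta-galactosidase reporter signal from transgenic T. cruzi replicating inside host cells; inhibitors lower the luminescence signal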
INS1 = experiment: INS-1E survival protection against cytokine death – cell-based, luminescence, retest, dose response (AID 449756); format: functional; conditions: Rattus norvegicus;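 note: cell death triggered by IL-1 beta plus TNF-alpha plus IFN-gamma mixture; protective hits raise ATP signal compared with cytokine alone wells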
[9] = NIH3T3 cell viability loss – ATP luminescence, mouse fibroblasts, counter-screen, dose response (AID 2010); format: functional, cell-based;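 note: cells exposed to compound for about 90 hours before reading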
cells [10] = format: functional, cell-based; remark: listed apart in the source
Vero = experiment: cells; format: functional; conditions: Chlorocebus sabaeus
[11] = molecular target: T5, Sentrin-specific protease 6 (Homo sapiens, UniProt Q9GZR1); format: functional;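 note: Luminescence-based dose-response confirmatory assay of SENP6 inhibition, following up an ultra-high-throughput screen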
T5 sequence (Q9GZR1 whole entry): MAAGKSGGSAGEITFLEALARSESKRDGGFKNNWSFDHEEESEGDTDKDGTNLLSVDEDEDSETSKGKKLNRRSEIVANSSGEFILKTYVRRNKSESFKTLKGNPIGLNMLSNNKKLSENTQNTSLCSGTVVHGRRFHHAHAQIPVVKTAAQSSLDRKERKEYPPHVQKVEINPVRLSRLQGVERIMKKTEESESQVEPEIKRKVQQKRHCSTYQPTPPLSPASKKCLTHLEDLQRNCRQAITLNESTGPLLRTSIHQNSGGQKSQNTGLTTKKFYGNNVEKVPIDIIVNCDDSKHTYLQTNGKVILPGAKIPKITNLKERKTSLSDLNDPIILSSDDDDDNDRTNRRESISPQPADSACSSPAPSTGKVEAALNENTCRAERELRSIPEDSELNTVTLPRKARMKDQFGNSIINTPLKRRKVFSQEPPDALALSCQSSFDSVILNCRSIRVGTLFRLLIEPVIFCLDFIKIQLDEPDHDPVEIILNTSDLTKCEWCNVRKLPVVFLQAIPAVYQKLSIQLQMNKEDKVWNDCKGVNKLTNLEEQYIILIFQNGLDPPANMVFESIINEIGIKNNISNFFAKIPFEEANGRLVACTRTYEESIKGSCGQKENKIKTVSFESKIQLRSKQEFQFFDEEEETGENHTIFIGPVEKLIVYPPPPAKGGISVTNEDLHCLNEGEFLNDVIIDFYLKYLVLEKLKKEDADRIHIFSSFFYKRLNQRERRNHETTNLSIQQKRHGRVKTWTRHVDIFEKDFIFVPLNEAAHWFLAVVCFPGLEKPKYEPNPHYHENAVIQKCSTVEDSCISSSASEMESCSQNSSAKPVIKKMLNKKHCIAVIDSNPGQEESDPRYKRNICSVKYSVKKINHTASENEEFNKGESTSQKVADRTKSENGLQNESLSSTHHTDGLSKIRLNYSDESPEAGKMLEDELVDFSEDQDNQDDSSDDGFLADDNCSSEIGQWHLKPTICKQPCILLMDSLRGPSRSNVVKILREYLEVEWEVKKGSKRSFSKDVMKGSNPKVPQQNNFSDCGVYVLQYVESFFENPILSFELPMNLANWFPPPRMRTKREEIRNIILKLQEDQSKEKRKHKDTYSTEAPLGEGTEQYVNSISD

[12] = molecular target: T6, Sentrin-specific protease 8 (Homo sapiens, UniProt Q96LD8); format: functional;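 note: luminescence read-out of SENP8 inhibition, dose-response confirmation following an ultra-high-throughput screen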
T6 sequence (Q96LD8 whole entry): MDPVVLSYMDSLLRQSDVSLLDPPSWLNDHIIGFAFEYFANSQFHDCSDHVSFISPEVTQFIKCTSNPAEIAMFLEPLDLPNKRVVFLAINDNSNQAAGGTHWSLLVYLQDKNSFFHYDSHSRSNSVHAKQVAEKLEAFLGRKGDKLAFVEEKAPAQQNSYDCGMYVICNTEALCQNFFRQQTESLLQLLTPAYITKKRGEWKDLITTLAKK

[13] = molecular target: T7, Sentrin-specific protease 7 (Homo sapiens, UniProt Q9BQF6); format: functional;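 note: Luminescence-based dose-response confirmation of ultra-high-throughput screening hits, measuring inhibition of SENP7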
T7 sequence (Q9BQF6 whole entry): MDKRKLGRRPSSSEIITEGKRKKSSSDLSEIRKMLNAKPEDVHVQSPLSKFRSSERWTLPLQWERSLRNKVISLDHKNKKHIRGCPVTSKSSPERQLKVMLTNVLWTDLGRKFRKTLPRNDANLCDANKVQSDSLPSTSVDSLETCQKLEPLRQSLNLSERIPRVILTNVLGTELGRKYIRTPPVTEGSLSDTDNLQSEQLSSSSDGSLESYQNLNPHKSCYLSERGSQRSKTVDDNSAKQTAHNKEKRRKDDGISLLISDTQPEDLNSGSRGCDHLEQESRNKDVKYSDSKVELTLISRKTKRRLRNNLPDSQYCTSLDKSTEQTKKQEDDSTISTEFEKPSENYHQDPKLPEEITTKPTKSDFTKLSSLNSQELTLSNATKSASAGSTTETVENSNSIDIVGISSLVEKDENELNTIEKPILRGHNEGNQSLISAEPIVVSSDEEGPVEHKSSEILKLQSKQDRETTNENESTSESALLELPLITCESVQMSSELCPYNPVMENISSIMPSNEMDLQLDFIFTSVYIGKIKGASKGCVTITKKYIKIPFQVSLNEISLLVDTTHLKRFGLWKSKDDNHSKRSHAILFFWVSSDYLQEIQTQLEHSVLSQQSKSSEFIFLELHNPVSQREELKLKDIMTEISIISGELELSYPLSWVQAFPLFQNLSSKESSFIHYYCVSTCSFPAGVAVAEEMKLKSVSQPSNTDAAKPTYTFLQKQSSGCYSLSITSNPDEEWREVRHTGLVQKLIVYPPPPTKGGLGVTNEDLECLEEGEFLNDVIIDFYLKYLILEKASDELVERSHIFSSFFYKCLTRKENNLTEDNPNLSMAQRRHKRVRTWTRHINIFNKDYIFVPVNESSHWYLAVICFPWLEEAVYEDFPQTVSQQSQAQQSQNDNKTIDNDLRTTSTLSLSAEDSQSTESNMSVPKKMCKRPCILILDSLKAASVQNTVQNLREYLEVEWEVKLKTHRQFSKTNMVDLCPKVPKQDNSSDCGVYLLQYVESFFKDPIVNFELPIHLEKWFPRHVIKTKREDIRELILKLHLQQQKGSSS

Caspase-3 = molecular target: T8, Caspase-3 (Homo sapiens, UniProt P42574); format: functional;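 note: Dose-response selectivity test against caspase-3 for candidate inhibitors of sentrin-specific proteases (SENPs)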
T8 sequence (P42574 whole entry): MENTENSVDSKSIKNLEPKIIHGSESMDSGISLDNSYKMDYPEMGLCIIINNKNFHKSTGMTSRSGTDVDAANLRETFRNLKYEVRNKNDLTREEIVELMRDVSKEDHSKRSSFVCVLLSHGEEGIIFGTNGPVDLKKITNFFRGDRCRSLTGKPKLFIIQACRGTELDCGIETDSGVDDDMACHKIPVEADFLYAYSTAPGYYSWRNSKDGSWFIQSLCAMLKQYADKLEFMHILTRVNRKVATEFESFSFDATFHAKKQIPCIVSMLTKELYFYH

Caspase-6 = molecular target: T9, Caspase-6 (Homo sapiens, UniProt P55212); experiment: inhibition of CASP6 peptide cleavage – biochemical, VEID-R110 fluorescence, cherry-pick, dose response (AID 720632)
T9 sequence (P55212 whole entry): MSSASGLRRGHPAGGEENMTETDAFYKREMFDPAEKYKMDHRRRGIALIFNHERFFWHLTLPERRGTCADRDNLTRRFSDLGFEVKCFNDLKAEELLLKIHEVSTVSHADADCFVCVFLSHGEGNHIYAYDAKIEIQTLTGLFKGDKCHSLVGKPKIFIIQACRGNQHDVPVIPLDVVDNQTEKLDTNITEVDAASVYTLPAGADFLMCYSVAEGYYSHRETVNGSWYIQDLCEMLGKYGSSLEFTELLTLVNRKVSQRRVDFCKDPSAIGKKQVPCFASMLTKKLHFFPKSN

[14] = viability of uninfected HEp-2 cells – cell-based, HTS, cytotoxicity control for RSV inhibitor project, dose response (AID 2410); format: functional; conditions: human respiratory syncytial virus

With COc1ccc(/C(O)=C/C2=NCC3c4ccccc4CCN3C2=O)cc1 (stereo not drawn) the EC50 [1] was > 300 µM (not active) and the EC50 [2] was > 300 µM (not active).

For COc1nccnc1NS(=O)(=O)c1ccc(NC(=S)NC(=O)c2ccc(F)cc2)cc1, the IC50 [3] was > 66 µM (inactive) and the IC50 [4] was > 66 µM (inactive).

In the case of Oc1ccc(C[C@H]2CNCCN2CCCCC2CCCCC2)cc1, the CC50 [5] is reported as 13.2 µM (active) and the IC50 [6] is reported as > 20 µM (inactive).

With O=C(CSC1c2ccccc2-c2ccccc21)N/N=C/c1ccccc1O the IC50 [3] was > 66 µM (inactive), the EC50 (cells [7]) was > 350 µM (not active) and the IC50 [4] was > 66 µM (inactive). The EC50 [8] was 2.55 µM (active), the AC50 (INS1) was 2.03 µM (active) and the EC50 [9] was 9.08 µM (active). For the same compound, the EC50 (cells [10]) was 12.9 µM (active).

With O=C(CCCCCn1c(=O)[nH]c2ccccc2c1=O)NCCCN1CCN(c2ccccc2F)CC1 the IC50 [6] was > 20 µM (inactive).

For CCSc1nc(=S)n(-c2ccccc2)c(C)c1C(C)=O, the IC50 [3] was > 66 µM (inactive) and the IC50 [4] was > 66 µM (inactive).

With CC1(C)Cc2c(sc(NC(=O)c3ccc4c(c3)OCCO4)c2C(N)=O)C(C)(C)N1 the IC50 [6] was > 20 µM (inactive).

With COc1ccc(-c2nc3cnccn3c2NC(C)(C)CC(C)(C)C)cc1O the CC50 (Vero) was > 25 µM (active).

In the case of COc1ccc(CNC(=O)CN(Cc2ccc(Cl)cc2)C(=O)c2csnn2)cc1, the IC50 [3] is reported as > 66 µM (inactive) and the IC50 [4] is reported as > 66 µM (inactive).

With CCN(CC)c1ccc(C(=O)OCC(=O)Nc2sccc2C#N)cc1 the IC50 [11] was 11.5 µM (active), the IC50 [12] was 89.1 µM (active) and the IC50 [13] was 11.6 µM (active). For the same compound, the IC50 (Caspase-3) was 37.3 µM (active).

In the case of NS(=O)(=O)c1ccc(CCNC(=O)C2CCN(c3ncnc4c3nc3n4CCCCC3)CC2)cc1, the IC50 [6] is reported as > 20 µM (inactive).

In the case of CSC1=NC(/C=C/c2ccc(Cl)cc2Cl)=CC(C)(C)N1, the CC50 (Vero) is reported as 17.4 µM (active).

For C=CCOc1cccc(C2C(C(=O)c3ccco3)=C(O)C(=O)N2Cc2ccco2)c1 (stereo not drawn), the EC50 [1] was > 300 µM (not active) and the EC50 [2] was > 300 µM (not active).

With CCN(CC)c1ccc(N/C=C2/C(=O)NC(=O)N(c3ccc(OC)cc3)C2=O)cc1 the EC50 [1] was 6.36 µM (active) and the EC50 [2] was 9.58 µM (inconclusive).

For O=C(O)c1ccccc1NS(=O)(=O)c1ccc(NN=Cc2cccc(Cl)c2)c([N+](=O)[O-])c1, the AC50 (Caspase-6) was 24.5 µM (active).

For O=C(NCc1ccccc1Cl)c1ccc2[nH]cnc2c1, the AC50 (Caspase-6) was 28.1 µM (active).

With Fc1cccc2sc(N3CCCCC3)nc12 the IC50 [11] was 30.3 µM (active), the IC50 [12] was 60.5 µM (active) and the IC50 [13] was 7.98 µM (active). The IC50 (Caspase-3) was 10.7 µM (active).

In the case of O=C(Nc1ccccc1[N+](=O)[O-])c1cc(S(=O)(=O)N2CCOCC2)cs1, the CC50 (Vero) is reported as 18.3 µM (active).

With O=C1NC(=O)N(CCc2ccccc2)C(=O)/C1=C/NCCCn1ccnc1 the EC50 [1] was > 300 µM (not active) and the EC50 [2] was > 300 µM (not active).

In the case of NC(=S)N=Nc1c(O)[nH]c2cc(F)c(F)cc12, the IC50 [3] is reported as > 66 µM (inactive), the IC50 [4] is reported as > 66 µM (inactive) and the CC50 [14] is reported as 40 µM (active). For the same compound, the IC50 [6] was > 20 µM (inactive).
